# According to US6818407B2, “Anti-endotoxic antimicrobial cationic peptides and methods of use therfor” (priority 1998, dated 2004):
# Columns and labels:
# [1] = tested on: mutant (Nal B, H744) of P. aeruginosa; experiment: microbe, parasite or virus in culture; type: cell-based; conditions: for (B) MIC of Cipro when combined with peptide: ciprofloxacin with peptide at concentration (A); for (B) MIC of Cipro when combined with peptide / FIC index / (A) Peptide doses together with Cipro: Nal B, H744; for FIC index: peptide + ciprofloxacin; for MIC A MIC of Peptides: peptide alone, P. aeruginosa mutant Nal B, H744 (Table 5); for (A) Peptide doses together with Cipro: peptide concentration in combination with ciprofloxacin
# How it was run: (§1)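 Checkerboard titration in Mueller Hinton broth, peptide against carbenicillin or ciprofloxacin, inoculum 10 μl of 10^−4 dilution of overnight culture, 18-24 h at 37 °C. Combination MIC is the lowest concentration reducing growth >50%. FIC index = A/MIC A + B/MIC B, with ≤~0.5 synergy, 1.0 additivity, >1.0 antagonism.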
# [2] = tested on: β-lactamase derepressed mutant (H547) of P. aeruginosa; experiment: microbe, parasite or virus in culture; type: cell-based; conditions: P. aeruginosa H547; for (B) MIC of Carb when combined with peptide: Carbenicillin with peptide at concentration (A); for MIC A MIC of Peptides: peptide alone; for (A) Peptide doses together with Carb: peptide concentration in combination with Carbenicillin
# How it was run: as §1
# [3] = tested on: Pseudomonas aeruginosa strain M2; experiment: Protection of neutropenic CD-1 mice challenged with Pseudomonas aeruginosa; type: in vivo; parameters: Survival post bacterial challenge, surviving mice: reference not given here; conditions: for Survival (%) post bacterial challenge: PBS 8
# How it was run: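 Neutropenia induced by three i.p. cyclophosphamide doses ([…], alternate days); mice then infected i.p. with 200-300 organisms/mouse. Peptides (200 µg/mouse = 8 mg/kg) in buffered citrate given i.p. at 30 min (single) or 30 min and 16 hrs (double) post-challenge; PBS control; mean of 2 experiments.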
# S. aureus K147 = experiment: MIC, broth microdilution assay in polypropylene microtiter trays; type: cell-based; conditions: average of three separate experiments
# How it was run: (§2)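 Read-out: OD. MIC = lowest peptide conc. giving no OD change over the defined time.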
# P. aeruginosa = experiment: as above; type: cell-based; conditions: average of three separate experiments
# How it was run: as §2
# S. aureus = experiment: as above; type: cell-based; conditions: average of three separate experiments
# How it was run: as §2
# E. coli [4] = experiment: as above; type: cell-based; conditions: average of three separate experiments
# How it was run: as §2
# Salmonella typhi = experiment: Synergy study (checkerboard titration) with hen white lysozyme; type: cell-based; conditions: for Lowest [CP] showing synergy: cationic peptide concentration, combined with lysozyme; for Lowest [Lyso] showing synergy: lysozyme concentration, combined with the peptide
# P. aeruginosa (H103) = experiment: as above; type: cell-based; conditions: for Lowest [CP] showing synergy: cationic peptide concentration, combined with lysozyme; for Lowest [Lyso] showing synergy: lysozyme concentration, combined with the peptide
# E. coli [5] = experiment: as above; type: cell-based; conditions: for Lowest [CP] showing synergy: cationic peptide concentration, combined with lysozyme; for Lowest [Lyso] showing synergy: lysozyme concentration, combined with the peptide
# [6] = double dose (200 μg per mouse i.p. at 30 min and 16 hrs), 16 hr
# [7] = single dose (200 μg per mouse i.p. at 30 min), 16 hr
smiles,measurement,setting,value
CC[C@H](C)[C@H](NC(=O)CNC(=O)[C@@H](NC(=O)[C@H](CCCCN)NC(=O)[C@H](CCCCN)NC(=O)[C@@H](NC(=O)[C@H](Cc1ccccc1)NC(=O)[C@H](CCCCN)NC(=O)[C@H](CCCCN)NC(=O)[C@H](Cc1c[nH]c2ccccc12)NC(=O)[C@@H](N)CCCCN)[C@@H](C)CC)[C@@H](C)CC)C(=O)NCC(=O)N[C@@H](C)C(=O)N[C@H](C(=O)N[C@@H](CC(C)C)C(=O)N[C@@H](CCCCN)C(=O)N[C@H](C(=O)N[C@@H](CC(C)C)C(=O)N[C@H](C(=O)N[C@H](C(=O)NCC(=O)N[C@@H](CC(C)C)C(=O)N1CCC[C@H]1C(=O)N[C@@H](C)C(=O)N[C@@H](CC(C)C)C(=O)N[C@@H](CCCCN)C(=O)N[C@@H](CC(C)C)C(=O)N[C@H](C(=O)N[C@@H](CCCCN)C(=O)N[C@@H](CCCCN)C(=O)O)[C@@H](C)O)[C@@H](C)O)[C@@H](C)O)C(C)C)C(C)C [CPα2],(B) MIC of Cipro when combined with peptide,[1],.125 µg/mL
same,FIC index,[1],.75
same,MIC A MIC of Peptides,[1],2 µg/mL
same,(A) Peptide doses together with Cipro,[1],1 µg/mL
same,(B) MIC of Carb when combined with peptide,[2],32 µg/mL
same,FIC index,"[2]; peptide + Carbenicillin, about 0.5 or less synergy, 1.0 additivity, >1.0 antagonism",1.0
same,MIC A MIC of Peptides,[2],2 µg/mL
same,(A) Peptide doses together with Carb,[2],1 µg/mL
same,"Survival post bacterial challenge, surviving mice",[3]; [6],13
same,"Survival post bacterial challenge, surviving mice","[3]; double dose, 24 hr",13
same,"Survival post bacterial challenge, surviving mice","[3]; double dose, 41 hr",12
same,"Survival post bacterial challenge, surviving mice","[3]; double dose, 48 hr",9
same,"Survival post bacterial challenge, surviving mice","[3]; double dose, 64 hr",6
same,Survival (%) post bacterial challenge,"[3]; double dose, 64 hr",46%
same,"Survival post bacterial challenge, surviving mice","[3]; double dose, 72 hr",6
same,Survival (%) post bacterial challenge,"[3]; double dose, 72 hr",46%
same,"Survival post bacterial challenge, surviving mice","[3]; double dose, 96 hr",5
same,Survival (%) post bacterial challenge,"[3]; double dose, 96 hr",38%
same,"Survival post bacterial challenge, surviving mice",[3]; [7],15
same,"Survival post bacterial challenge, surviving mice","[3]; single dose, 24 hr",15
same,"Survival post bacterial challenge, surviving mice","[3]; single dose, 41 hr",13
same,"Survival post bacterial challenge, surviving mice","[3]; single dose, 48 hr",13
same,"Survival post bacterial challenge, surviving mice","[3]; single dose, 64 hr",13
same,Survival (%) post bacterial challenge,"[3]; single dose, 64 hr",86%
same,"Survival post bacterial challenge, surviving mice","[3]; single dose, 72 hr",12
same,Survival (%) post bacterial challenge,"[3]; single dose, 72 hr",80%
same,"Survival post bacterial challenge, surviving mice","[3]; single dose, 96 hr",12
same,Survival (%) post bacterial challenge,"[3]; single dose, 96 hr",80%
same,MIC S. aureus K147,S. aureus K147,16 µg/mL
same,MIC P. aeruginosa,P. aeruginosa,6 µg/mL
same,MIC S. aureus,S. aureus,16 µg/mL
same,MIC E. coli,E. coli [4],2 µg/mL
same,FIC for combination of cationic peptide and lysozyme,Salmonella typhi,0.63
same,Lowest [CP] showing synergy,Salmonella typhi,2.61 µg/mL
same,Lowest [Lyso] showing synergy,Salmonella typhi,125 µg/mL
same,FIC for combination of cationic peptide and lysozyme,P. aeruginosa (H103),0.56
same,Lowest [CP] showing synergy,P. aeruginosa (H103),10.4 µg/mL
same,Lowest [Lyso] showing synergy,P. aeruginosa (H103),62.5 µg/mL
same,FIC for combination of cationic peptide and lysozyme,E. coli [5],0.31
same,Lowest [CP] showing synergy,E. coli [5],0.65 µg/mL
same,Lowest [Lyso] showing synergy,E. coli [5],7.8 µg/mL
CC[C@H](C)[C@H](NC(=O)CNC(=O)[C@@H](NC(=O)[C@H](CCCCN)NC(=O)[C@H](CCCCN)NC(=O)[C@H](Cc1ccccc1)NC(=O)[C@H](CC(C)C)NC(=O)[C@H](CCCCN)NC(=O)[C@H](Cc1c[nH]c2ccccc12)NC(=O)[C@H](CC(C)C)NC(=O)[C@@H](N)CCCCN)[C@@H](C)CC)C(=O)NCC(=O)N[C@@H](C)C(=O)N[C@H](C(=O)N[C@@H](CC(C)C)C(=O)N[C@@H](CCCCN)C(=O)N[C@H](C(=O)N[C@@H](CC(C)C)C(=O)N[C@@H](CCCCN)C(=O)N[C@H](C(=O)N[C@@H](CC(C)C)C(=O)N[C@H](C(=O)N[C@H](C(=O)NCC(=O)N[C@@H](CC(C)C)C(=O)N1CCC[C@H]1C(=O)N[C@@H](C)C(=O)N[C@@H](CC(C)C)C(=O)N[C@@H](CCCCN)C(=O)N[C@@H](CC(C)C)C(=O)N[C@H](C(=O)N[C@@H](CC(C)C)C(=O)N[C@@H](CCCCN)C(=O)O)[C@@H](C)O)[C@@H](C)O)[C@@H](C)O)C(C)C)C(C)C)C(C)C [CM7],(B) MIC of Cipro when combined with peptide,[1],.125 µg/mL
same,FIC index,[1],.63
same,MIC A MIC of Peptides,[1],16 µg/mL
same,(A) Peptide doses together with Cipro,[1],2 µg/mL
same,(B) MIC of Carb when combined with peptide,[2],64 µg/mL
same,MIC A MIC of Peptides,[2],32 µg/mL
same,(A) Peptide doses together with Carb,[2],2 µg/mL
same,"Survival post bacterial challenge, surviving mice",[3]; [6],12
same,"Survival post bacterial challenge, surviving mice","[3]; double dose, 24 hr",12
same,"Survival post bacterial challenge, surviving mice","[3]; double dose, 41 hr",8
same,"Survival post bacterial challenge, surviving mice","[3]; double dose, 48 hr",6
same,"Survival post bacterial challenge, surviving mice","[3]; double dose, 64 hr",5
same,Survival (%) post bacterial challenge,"[3]; double dose, 64 hr",41%
same,"Survival post bacterial challenge, surviving mice","[3]; double dose, 72 hr",5
same,Survival (%) post bacterial challenge,"[3]; double dose, 72 hr",41%
same,"Survival post bacterial challenge, surviving mice","[3]; double dose, 96 hr",5
same,Survival (%) post bacterial challenge,"[3]; double dose, 96 hr",41%
same,"Survival post bacterial challenge, surviving mice",[3]; [7],15
same,"Survival post bacterial challenge, surviving mice","[3]; single dose, 24 hr",15
same,"Survival post bacterial challenge, surviving mice","[3]; single dose, 41 hr",13
same,"Survival post bacterial challenge, surviving mice","[3]; single dose, 48 hr",13
same,"Survival post bacterial challenge, surviving mice","[3]; single dose, 64 hr",12
same,Survival (%) post bacterial challenge,"[3]; single dose, 64 hr",80%
same,"Survival post bacterial challenge, surviving mice","[3]; single dose, 72 hr",11
same,Survival (%) post bacterial challenge,"[3]; single dose, 72 hr",73%
same,"Survival post bacterial challenge, surviving mice","[3]; single dose, 96 hr",11
same,Survival (%) post bacterial challenge,"[3]; single dose, 96 hr",73%
same,MIC S. aureus K147,S. aureus K147,4 to 8 µg/mL
same,MIC P. aeruginosa,P. aeruginosa,8 µg/mL
same,MIC S. aureus,S. aureus,8 µg/mL
same,MIC E. coli,E. coli [4],2 µg/mL
same,FIC for combination of cationic peptide and lysozyme,Salmonella typhi,0.52
same,Lowest [CP] showing synergy,Salmonella typhi,2.61 µg/mL
same,Lowest [Lyso] showing synergy,Salmonella typhi,15.6 µg/mL
same,FIC for combination of cationic peptide and lysozyme,P. aeruginosa (H103),0.75
same,Lowest [CP] showing synergy,P. aeruginosa (H103),2.6 µg/mL
same,Lowest [Lyso] showing synergy,P. aeruginosa (H103),250 µg/mL
same,FIC for combination of cationic peptide and lysozyme,E. coli [5],0.31
same,Lowest [CP] showing synergy,E. coli [5],0.65 µg/mL
same,Lowest [Lyso] showing synergy,E. coli [5],7.8 µg/mL
